Test results from the METLIN SMRT retention time set (Domingo-Almenara et al. 2019).

Assay: gradient 5% acetonitrile 3 min, to 50% in 2 min, to 85% in 15 min, held 3 min, 100 µL/min
Settings: column: Zorbax Extend-C18 2.1 x 50 mm; eluents: water / acetonitrile, 0.1% formic acid
Method in brief: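 Pure standards were analyzed in mixtures of ~100 molecules using HPLC coupled to a quadrupole time-of-flight mass spectrometer, in both positive and negative ionization mode. Separation used a Zorbax Extend-C18 column (2.1 × 50 mm, 1.8 μm) at 100 μL/min, with water and acetonitrile each containing 0.1% formic acid. Dead and dwell volumes were 40 μL and 900 μL, and data were collected over 3 months. Retention time was read from computationally picked adduct peaks, each inspected manually.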

Structure (SMILES) | RP-LC retention time [s]
O=C(C1CC(=O)N(c2n[nH]c3cccc(F)c23)C1)N1CCN(c2ccccc2)CC1 (configuration not stated) | 718
O=C1c2ccc(O)cc2O[C@H](c2cc(O)c(O)c(O)c2)[C@H]1O | 617
Cc1noc(C)c1-c1ccc(S(=O)(=O)N2CCN(C)CC2)cc1 | 610
Cc1cc(C)cc(NC(=O)C2CCN(S(=O)(=O)c3ccc4c(c3)sc(=O)n4C(C)C)CC2)c1 | 1070
CCC(CN1CCOCC1)NC(=O)C1CCN(c2ccc(-c3cccs3)nn2)CC1 (configuration not stated) | 571
COCCNC(=O)NCCn1c(-c2ccc(C)cc2)nc2cccnc21 | 588
Cc1ccc(CNC(=O)COc2ccccc2-c2nnc(-c3ccccc3)o2)o1 | 1040
CCC(=O)Nc1ccc2c(c1)CN(C(=O)c1cccc(Cl)c1)C(C(=O)N1CCCC1)C2 (configuration not stated) | 1070
CC(Oc1cccc(Cl)c1)C(=O)Nc1ccc2c(c1)Sc1ncccc1C(=O)N2C (configuration not stated) | 911
Nn1c(Cc2ccccc2)nnc1Cc1ccccc1 | 744
CCCNC(=O)C1CCN(c2nc3ccsc3c(=O)n2Cc2ccc(F)cc2)CC1 | 807
COCc1nncn1C1CCN(S(=O)(=O)c2ccccc2C(F)(F)F)CC1 | 725
Cc1ccc2c(=O)c3c([nH]c2c1C)CCN(CC(=O)Nc1cc(F)cc(F)c1)C3 | 638
CSc1ncccc1C(=O)Nc1ccc(OCc2nnc(-c3ccccc3)o2)cc1 | 884
Cc1cc(N2CCOCC2)nc(N2CCN(C(=O)c3ccccc3Br)CC2)n1 | 612
CCN(CC)S(=O)(=O)c1cccc(-c2nc(-c3ccc(C)cc3)no2)c1 | 1320
COc1ccc(-n2c(SCc3nc(-c4ccc(C)cc4)no3)nnc2-c2ccncc2)cc1 | 1000
CCOc1ccc(-c2noc(Cn3nc(-c4cccc(OC)c4)ccc3=O)n2)cc1 | 1070
COc1cc(NC(=O)N2CCN(c3ccc(=O)n(-c4ccc(C)c(C)c4)n3)CC2)cc(OC)c1OC | 775

Structure (SMILES) | RP-LC retention time [s]
CC1CCN(S(=O)(=O)c2nn(Cc3ccccn3)cc2C(=O)O)CC1 | 721
O=C(Cn1c(=O)c(S(=O)(=O)c2ccccc2)cc2ccccc21)N1CCCC1 | 757
Cc1ccc2ncn(C3CCN(C(=O)Nc4ccc(C)c(F)c4)CC3)c(=O)c2c1 | 851
COc1cccc(-c2cc(C(=O)N3CCN(c4ncccn4)CC3)n(C)n2)c1 | 754
CCOc1ccccc1CNC(=O)c1cnc(OC)nc1 | 702
Cc1oc(-c2[nH]ncc2C(=O)N2CCCC2)cc1S(=O)(=O)Nc1cc(F)ccc1F | 699
CCn1cc(S(=O)(=O)Nc2cccc(C#N)c2)c2cccnc21 | 781
C/C(=N\O)C1CC(CC(=O)O)C1(C)C (configuration not stated) | 688
O=C(/C=C/C(=O)N1CCc2ccccc2C1)N1CCc2ccccc2C1 | 888
O=C(NC1CC1)c1ccc(OCC2CCN(C(=O)Cc3ccccc3F)CC2)cc1 | 803
Cc1ccc2[nH]c(C(=O)NCc3ccncc3)cc2c1 | 628
Cc1ccc(CN2CC(Oc3ccc(-c4noc(C5CCOCC5)n4)cc3)C2)o1 | 686
Cc1ccc(C)c(N2CCN(C(=O)c3ccc4c(c3)CCN4C(=O)C3CC3)CC2)c1 | 1070
CCCCOC(=O)c1ccc(Nc2nc(C(=O)OCC)nc3ccccc23)cc1 | 1070
Cc1ccc(C(=O)NCC2CCCN(S(=O)(=O)c3c(C)c(C)cc(C)c3C)C2)cc1 (configuration not stated) | 1100
Nc1ncnc(N2CCN(C(c3ccccc3)c3ccccc3)CC2)c1[N+](=O)[O-] | 698
CCc1ccc(N2CC(c3noc(-c4ccccc4F)n3)CC2=O)cc1 (configuration not stated) | 1100
CC(C)Oc1ccc(-c2noc(Cn3nc(-c4ccc5c(c4)OCO5)ccc3=O)n2)cc1 | 1080

The remaining lines, values ahead:

RP-LC retention time [s] | Structure (SMILES)
650 | C[C@@H]1O[C@@H](O[C@H]2[C@H](Oc3cc(O)c(C(=O)CCc4ccc(O)cc4)c(O)c3)O[C@H](CO)[C@@H](O)[C@@H]2O)[C@H](O)[C@H](O)[C@H]1O
577 | Cc1cc(C)n(CCC(=O)NCCn2c(C)cnc2C2CCC2)n1
738 | Cc1cc(N2CCCCC2)nc(N2CCN(C(=O)CC3CCCC3)CC2)n1
653 | Cc1nn(CC(=O)NCCN(C)C2CCCCC2)c(=O)c2c(C)n(-c3ccccc3)nc12
646 | CN1CCN(c2ccc(-c3ccc(NC(=O)c4cc(Cl)ccc4Cl)cc3)nn2)CC1
1110 | CCc1nc(-c2ccc(-c3noc(CNS(=O)(=O)c4ccc(Cl)cc4)n3)cc2)cs1
660 | CCNC(=O)C1CCc2sc(C(=O)N(CC)CC)cc2C1 (configuration not stated)
911 | COc1ccc(-c2cc(C(=O)Nc3ccccc3)nn2C2CCS(=O)(=O)C2)cc1 (configuration not stated)
959 | CCN1C(=O)c2cc(S(=O)(=O)Nc3ccccc3)ccc2Oc2cccnc21
814 | COc1cc(OC)c(NC(=O)C2CCN(S(=O)(=O)c3cn(C(C)C)cn3)CC2)cc1Cl
780 | CCOC(=O)c1c(C)[nH]c(C(=O)N2CCC(CC(=O)NCc3ccc(F)cc3)CC2)c1C
888 | C[C@H]1CN(C(=O)Nc2ccc3c(c2)CCC3)C[C@@H]1c1nc(-c2ccncc2)no1
567 | O=C(NCCc1ccccc1)C(=O)NCc1cccnc1
789 | O=C(O)c1ccc2c(c1)N(S(=O)(=O)c1ccccc1F)CC2
758 | Cc1cccc(NC(=O)CSc2nc(N3CCCCC3)nc3ccccc23)c1
560 | CN(C)C(=O)c1cc2c(s1)CCC(C(=O)NCCc1ccccn1)C2 (configuration not stated)
1030 | COc1ccc(-c2noc(CS(=O)(=O)c3ccc(Cl)cc3)n2)cc1OC
914 | Cc1cc(C)n(-c2ccc(SCC(=O)N3CCCc4ccccc43)nn2)n1
717 | COc1cccc(S(=O)(=O)N2CCCC(c3nn[nH]n3)C2)c1 (configuration not stated)
640 | CCOC(=O)c1[nH]c(C)c(S(=O)(=O)N2CCN(c3ccccn3)CC2)c1C
1070 | CCCCN1C(=O)C(NC(=O)c2ccccc2OC)(C(F)(F)F)C(C(=O)OC)=C1C (configuration not stated)
770 | CCOc1ccc(C2NC(=O)NC(C)=C2C(=O)OC2CCCC2)cc1OC (configuration not stated)
818 | O=S(=O)(Cc1ccc(F)cc1)NCC1(c2ccccc2)CCOCC1
642 | COC(=O)c1ccc(Cn2nc(C3CCN(S(C)(=O)=O)CC3)n(C)c2=O)cc1
1140 | Cc1nc2cc(-c3noc(/C=C/c4ccccc4)n3)ccc2o1

RP-LC retention time [s] | Structure (SMILES)
1000 | Cc1c(Cl)cccc1NC(=O)C1CCN(c2nc(C3CCC3)nc3csc(C)c23)CC1
1060 | CS(=O)(=O)N1CCC(C(=O)Nc2ccc(C(F)(F)F)cc2)Oc2ccc(Cl)cc21 (configuration not stated)
761 | C=CCNC(=O)N1CCCN(C2=NS(=O)(=O)C(c3ccc(Cl)cc3)=C2C)CC1
958 | COC(=O)c1cc(S(=O)(=O)N2CCCC2C(=O)Nc2ccc(Cl)cc2C)cn1C (configuration not stated)
666 | CCC[C@H](Nc1nc(-c2ccc(NC(=O)NCC)c(OC)c2)ncc1C)c1cccnc1
666 | Cc1cc(C)c(C)c(S(=O)(=O)N2CCc3nc[nH]c3C2)c1C
1130 | Cc1cccc(NC(=O)C2CCCN(S(=O)(=O)c3cc(-c4noc(C5CCC5)n4)cs3)C2)c1 (configuration not stated)
988 | O=C(COc1ccc(Cl)cc1)NCC1(c2ccc(F)cc2)CC1
619 | CCn1ccc(C(=O)NC2CC2)n1
638 | Cc1ccc(S(=O)(=O)N2CCC3(CC2)CN(C)CC3c2noc(C3CC3)n2)cc1 (configuration not stated)
782 | CCCCN(C)C(=O)C1CCCN(c2nnc(C)c3c(C)n(-c4ccc(Cl)cc4)nc23)C1 (configuration not stated)
568 | COCCCNC(=O)C1CCN(c2cncnc2N(C)C)CC1
580 | Cc1oc(-c2[nH]ncc2C(=O)N2CCCC2)cc1S(=O)(=O)N1CCN(CC(C)C)CC1
596 | CC1=C(c2ccc(C)cc2)S(=O)(=O)N=C1N1CCC(NC(=O)c2sccc2C)CC1
631 | CNC(=O)Nc1cccc(-c2ccc(OC)nn2)c1
864 | Cc1cc(S(=O)(=O)N2CC[C@H](n3c(=O)n(C)c4cccnc43)C2)ccc1F
922 | COc1cccc(CC(=O)Nc2nnc(SCc3nnc(-c4ccccc4C)o3)s2)c1
541 | CCNc1cc(-n2ccnc2)ncn1
1030 | COc1ccc(OC)c(NC(=O)c2sc(-c3cn(C(C)C)c4ncccc34)nc2C)c1
867 | Cc1nc(-c2ccc(N3CCN(C(=O)c4nccc5ccccc45)CC3)nc2)sc1C
891 | CCn1ccc(C(=O)Nc2cccc(OCc3nnc(-c4ccc(OC)cc4)o3)c2)n1
1240 | Cc1ccc(-c2noc(Cn3c(=O)n(CC(C)C)c(=O)c4ccccc43)n2)cc1
702 | CC(C)NC(=O)c1ccc(Nc2c(-c3ccccc3)nc3cnccn23)cc1
728 | O=C(Nc1cc(F)ccc1F)C1CCN(C(=O)c2cccn2-c2cccnc2)CC1
724 | CCc1csc(-c2cn(CC(=O)NCc3ccc(Cl)cc3)cn2)n1
